Source: PubChem BioAssay AID330 (DTP/NCI, 2004)
Several values for one entry are separate records, joined by “and”; a condition that tells them apart may be missing. Equal values may be shown once. Inconclusive results and toxic doses are left out.

Test system: P388 leukemia ip, CD2F1 mice, survival T/C
Assay: NCI In Vivo Anticancer Drug Screen. Data for tumor model P388 Leukemia (intraperitoneal) in CD2F1 (CDF1) mice
Details: endpoint: median survival time, higher = longer survival
Summary of the method: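 Mice carrying the transplanted tumor received test compound or vehicle. Survival was recorded in each group, and the value is the treated-group measurement divided by that of the vehicle-treated control group.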

[1] = dose: 60.0 mg/kg/injection, schedule: Q01DX005 (ip), vehicle: saline with Tween-80
[2] = dose: 120.0 mg/kg/injection, schedule: Q01DX005 (ip), vehicle: saline with Tween-80
[3] = dose: 50.0 mg/kg/injection, schedule: Q01DX009 (ip), vehicle: saline with Tween-80
[4] = dose: 100.0 mg/kg/injection, schedule: Q01DX009 (ip), vehicle: saline with Tween-80
[5] = dose: 200.0 mg/kg/injection, schedule: Q01DX009 (ip), vehicle: saline with Tween-80
[6] = dose: 240.0 mg/kg/injection, schedule: Q01DX005 (ip), vehicle: saline with Tween-80
[7] = dose: 50.0 mg/kg/injection, schedule: Q01DX005 (ip), vehicle: Klucel (hydroxypropylcellulose) (HPC)
[8] = dose: 100.0 mg/kg/injection, schedule: Q01DX005 (ip), vehicle: Klucel (hydroxypropylcellulose) (HPC)
[9] = dose: 200.0 mg/kg/injection, schedule: Q01DX005 (ip), vehicle: Klucel (hydroxypropylcellulose) (HPC)
[10] = dose: 6.25 mg/kg/injection, schedule: Q01DX005 (ip), vehicle: Klucel (hydroxypropylcellulose) (HPC)
[11] = dose: 12.5 mg/kg/injection, schedule: Q01DX005 (ip), vehicle: Klucel (hydroxypropylcellulose) (HPC)
[12] = dose: 25.0 mg/kg/injection, schedule: Q01DX005 (ip), vehicle: Klucel (hydroxypropylcellulose) (HPC)
[13] = dose: 60.0 mg/kg/injection, schedule: Q01DX005 (ip), vehicle: Klucel (hydroxypropylcellulose) (HPC)
[14] = dose: 120.0 mg/kg/injection, schedule: Q01DX005 (ip), vehicle: Klucel (hydroxypropylcellulose) (HPC)
[15] = dose: 240.0 mg/kg/injection, schedule: Q01DX005 (ip), vehicle: Klucel (hydroxypropylcellulose) (HPC)
[16] = dose: 60.0 mg/kg/injection, schedule: Q01DX005 (ip), vehicle: saline
[17] = dose: 120.0 mg/kg/injection, schedule: Q01DX005 (ip), vehicle: saline
[18] = dose: 240.0 mg/kg/injection, schedule: Q01DX005 (ip), vehicle: saline
[19] = dose: 100.0 mg/kg/injection, schedule: Q01DX009 (ip), vehicle: Klucel (hydroxypropylcellulose) (HPC)

Compound: CS(C)(=O)=NS(=O)(=O)c1ccc([N+](=O)[O-])cc1
- T/C (dose: 100.0 mg/kg/injection, schedule: Q04DX002 (ip), vehicle: Klucel (hydroxypropylcellulose) (HPC)): 100 % of control
- T/C (dose: 200.0 mg/kg/injection, schedule: Q04DX002 (ip), vehicle: Klucel (hydroxypropylcellulose) (HPC)): 95 % of control
- T/C (dose: 400.0 mg/kg/injection, schedule: Q04DX002 (ip), vehicle: Klucel (hydroxypropylcellulose) (HPC)): 96 % of control

Compound: CCOC(=O)c1nc(SC)sc1N
- T/C [1]: 95 % of control
- T/C [2]: 102 % of control

Compound: CCCCC/C(C)=C\CBr
- T/C (dose: 25.0 mg/kg/injection, schedule: Q01DX009 (ip), vehicle: saline with Tween-80): 96 % of control
- T/C [3]: 99 % of control
- T/C [4]: 89 % of control

Compound: C#CC(C)(C)NC(=O)c1cccnc1Oc1ccccc1
- T/C (dose: 50.0 mg/kg/injection, schedule: Q01DX005 (ip), vehicle: saline with Tween-80): 99 % of control
- T/C (dose: 100.0 mg/kg/injection, schedule: Q01DX005 (ip), vehicle: saline with Tween-80): 97 % of control
- T/C (dose: 200.0 mg/kg/injection, schedule: Q01DX005 (ip), vehicle: saline with Tween-80): 99 % of control

Compound: CCCC(=O)Nc1ccccc1
- T/C [3]: 100 % of control
- T/C [4]: 100 % of control
- T/C [5]: 93 % of control

Compound: FC(F)(F)C(F)(F)C(F)(F)C(F)(F)C(F)(F)C(F)(F)C[CH2][Sn]([Br])([Br])[CH2]CC(F)(F)C(F)(F)C(F)(F)C(F)(F)C(F)(F)C(F)(F)F
- T/C [1]: 109 % of control
- T/C [2]: 105 % of control
- T/C [6]: 108 % of control

Compound: Cc1nc2ncn(-c3ccccc3)c2c(=O)n1-c1ccccc1
- T/C [7]: 100 % of control
- T/C [8]: 100 % of control
- T/C [9]: 100 % of control

Compound: c1ccc([I+]c2ccccc2)cc1
- T/C (dose: 0.65 mg/kg/injection, schedule: Q01DX009 (ip), vehicle: saline): 95 % of control
- T/C (dose: 1.25 mg/kg/injection, schedule: Q01DX009 (ip), vehicle: saline sonified): 100 % of control
- T/C (dose: 1.3 mg/kg/injection, schedule: Q01DX009 (ip), vehicle: saline): 90 % of control
- T/C (dose: 1.56 mg/kg/injection, schedule: Q01DX009 (ip), vehicle: saline with Tween-80): 103 % of control
- T/C (dose: 2.5 mg/kg/injection, schedule: Q01DX009 (ip), vehicle: saline sonified): 118 % of control
- T/C (dose: 2.5 mg/kg/injection, schedule: Q01DX009 (ip), vehicle: saline): 109 % of control
- T/C (dose: 2.6 mg/kg/injection, schedule: Q01DX009 (ip), vehicle: saline with Tween-80): 106 % of control
- T/C (dose: 3.13 mg/kg/injection, schedule: Q01DX009 (ip), vehicle: saline sonified): 100 % of control
- T/C (dose: 3.13 mg/kg/injection, schedule: Q01DX009 (ip), vehicle: saline with Tween-80): 108 % of control
- T/C (dose: 3.13 mg/kg/injection, schedule: Q04DX003 (ip), vehicle: saline): 100 % of control
- T/C (dose: 4.0 mg/kg/injection, schedule: Q01DX009 (ip), vehicle: saline with Tween-80): 113 % of control
- T/C (dose: 6.0 mg/kg/injection, schedule: Q01DX009 (ip), vehicle: saline with Tween-80): 113 % of control
- T/C (dose: 6.25 mg/kg/injection, schedule: Q01DX009 (ip), vehicle: saline with Tween-80): 122 % of control and 91 % of control
- T/C (dose: 6.25 mg/kg/injection, schedule: Q04DX003 (ip), vehicle: saline): 118 % of control
- T/C (dose: 12.5 mg/kg/injection, schedule: Q04DX003 (ip), vehicle: saline): 118 % of control

Compound: Cc1cnc2ccc(O)cc2c1CO
- T/C (dose: 100.0 mg/kg/injection, schedule: Q04DX002 (ip), vehicle: saline with Tween-80): 92 % of control
- T/C (dose: 200.0 mg/kg/injection, schedule: Q04DX002 (ip), vehicle: saline with Tween-80): 94 % of control
- T/C (dose: 400.0 mg/kg/injection, schedule: Q04DX002 (ip), vehicle: saline with Tween-80): 93 % of control

Compound: O=C(Nc1cccc(Cl)c1)OCC#CCCl
- T/C (dose: 50.0 mg/kg/injection, schedule: Q01DX005 (ip), vehicle: saline + Tween-80 + alcohol): 100 % of control
- T/C (dose: 100.0 mg/kg/injection, schedule: Q01DX005 (ip), vehicle: saline + Tween-80 + alcohol): 107 % of control
- T/C (dose: 200.0 mg/kg/injection, schedule: Q01DX005 (ip), vehicle: saline + Tween-80 + alcohol): 108 % of control

Compound: Cc1cc(C)c(S(=O)(=O)N/N=C/C(=O)O)c(C)c1
- T/C (dose: 12.5 mg/kg/injection, schedule: Q01DX009 (ip), vehicle: other): 112 % of control and 117 % of control
- T/C (dose: 25.0 mg/kg/injection, schedule: Q01DX009 (ip), vehicle: other): 122 % of control
- T/C (dose: 100.0 mg/kg/injection, schedule: Q01DX009 (ip), vehicle: other): 154 % of control

Compound: O=C(Nc1ccc(Cl)cc1)Nc1nnc(COc2ccc(Cl)c(Cl)c2)o1
- T/C (dose: 15.0 mg/kg/injection, schedule: Q01DX005 (ip), vehicle: saline with Tween-80): 87 % of control and 90 % of control
- T/C (dose: 30.0 mg/kg/injection, schedule: Q01DX005 (ip), vehicle: saline with Tween-80): 90 % of control
- T/C [1]: 89 % of control and 93 % of control
- T/C [2]: 98 % of control
- T/C [6]: 91 % of control

Compound: CCCCCCC(=O)/C=C/c1ccccc1OC(=O)c1ccc([N+](=O)[O-])cc1
- T/C [3]: 98 % of control
- T/C [4]: 99 % of control
- T/C [5]: 96 % of control

Compound: COc1ccc2sc3c(C)ccc(NCCCC4CCCN5CCCCC45)c3c(=O)c2c1 (configuration not stated)
- T/C (dose: 6.25 mg/kg/injection, schedule: Q01DX005 (ip), vehicle: saline with Tween-80): 94 % of control
- T/C (dose: 12.5 mg/kg/injection, schedule: Q01DX005 (ip), vehicle: saline with Tween-80): 92 % of control
- T/C (dose: 25.0 mg/kg/injection, schedule: Q01DX005 (ip), vehicle: saline with Tween-80): 89 % of control

Compound: CCO[C@H]1c2cc3c(cc2[C@@H](c2cc(OC)c(OC)c(OC)c2)[C@H]2C(=O)OC[C@@H]21)OCO3
- T/C [7]: 96 % of control
- T/C [8]: 112 % of control

Compound: Cc1ccc(S(=O)(=O)NC(=O)n2nc(C)cc2C)cc1
- T/C [7]: 96 % of control
- T/C [8]: 96 % of control
- T/C [9]: 103 % of control

Compound: Nc1ccc2[se]nc3c2c1C(=O)c1ccccc1-3
- T/C [10]: 98 % of control
- T/C [11]: 98 % of control
- T/C [12]: 101 % of control

Compound: Cc1cc(Cl)cc(C(=O)c2ccccc2)c1OC(N)=O
- T/C [7]: 101 % of control
- T/C [8]: 103 % of control
- T/C [9]: 106 % of control

Compound: CCOC(=O)C1=C(C)N(C)C(C)=C(C(=O)OCC)C1
- T/C [1]: 108 % of control
- T/C [2]: 100 % of control
- T/C [6]: 101 % of control

Compound: NNP(=S)(NN)Oc1ccccc1
- T/C [10]: 96 % of control
- T/C [11]: 114 % of control
- T/C [12]: 105 % of control

Compound: O=C1C2=C(Nc3ccccc3N2)OC1c1ccncc1 (configuration not stated)
- T/C [13]: 93 % of control
- T/C [14]: 93 % of control
- T/C [15]: 88 % of control

Compound: CN(C)CCN1C(=O)CN=C(c2ccccc2Cl)c2cc(Cl)ccc21
- T/C [16]: 102 % of control
- T/C [17]: 99 % of control
- T/C [18]: 95 % of control

Compound: Fc1ccc(NC(=S)SCc2ccc(Cl)c(Cl)c2)cc1F
- T/C (dose: 12.5 mg/kg/injection, schedule: Q01DX009 (ip), vehicle: Klucel (hydroxypropylcellulose) (HPC)): 124 % of control
- T/C [19]: 116 % of control and 96 % of control

Compound: CC1(C)SC(C)(c2ccsc2)N(c2nccs2)C1=O (configuration not stated)
- T/C [13]: 97 % of control
- T/C [14]: 96 % of control
- T/C [15]: 94 % of control

Compound: CCN(CC)P1(=O)C=C(C)C2C1C1C=C(C)C2P1(=O)N(CC)CC (configuration not stated)
- T/C [16]: 108 % of control
- T/C [17]: 101 % of control
- T/C [18]: 102 % of control

Compound: O=C(Nc1nc2ccc([N+](=O)[O-])cc2s1)C(F)(F)C(F)(F)F
- T/C (dose: 6.25 mg/kg/injection, schedule: Q01DX009 (ip), vehicle: saline): 112 % of control
- T/C (dose: 12.5 mg/kg/injection, schedule: Q01DX009 (ip), vehicle: saline): 112 % of control
- T/C (dose: 25.0 mg/kg/injection, schedule: Q01DX009 (ip), vehicle: saline): 106 % of control

Compound: COc1ccc(/C=N/NC(N)=O)c(OC)c1OC
- T/C (dose: 50.0 mg/kg/injection, schedule: Q01DX009 (ip), vehicle: Klucel (hydroxypropylcellulose) (HPC)): 100 % of control
- T/C [19]: 103 % of control
- T/C (dose: 200.0 mg/kg/injection, schedule: Q01DX009 (ip), vehicle: Klucel (hydroxypropylcellulose) (HPC)): 98 % of control
